Measured values taken from patent publication US6770122B2, “Copper deposition using copper formate complexes” (E. I. du Pont de Nemours and Company, priority 2001, dated 2004).

Columns and labels:
[1] = Experimental: A common technique used in dissolving metal complexes in supercritical carbon dioxide is to add a co-solvent (Cross et al.). The requirements of a co-solvent have been defined (Cross et al.). Methanol and other alcohols are commonly used. […] In these measurements, the complex was dissolved in 0.25-1 mL of methanol or 1-butanol and then shaken with 5-10 mL hexane; solubility was indicated by formation of a homogeneous blue solution. Alcohols such as methanol and 1-butanol are totally miscible with supercritical carbon dioxide at ambient temperatures and high pressure (Cross et al). Between 2 to 5% cosolvent is typically used in order to retain supercritical properties of the solvent at reasonable temperatures and pressures.
[2] = Solubility in hexane, judged by blue colour of the solution; settings: no co-solvent, qualitative
Protocol: Copper formate complexes were prepared using 1-octyl-2-ethyl-4-methylimidazole and 1-hexyl-2-ethyl-4-methylimidazole as ligands.

CCCCC(CC)Cn1cc(C)nc1CC (centres unmarked) [1-(2-ethylhexyl)-2-ethyl-4-methylimidazole]
solubility in hexane with co-solvent (or supercritical carbon dioxide with co-solvent) [1]: 1-(2-ethylhexyl)-2-ethyl-4-methyl-

CCCCC(CC)Cn1cccn1 (centres unmarked) [1-(2-ethylhexyl)pyrazole]
solubility in hexane with co-solvent (or supercritical carbon dioxide with co-solvent) [1]: 1-(2-ethylhexyl)pyrazole

CC(C)(C)c1ccncc1 [4-t-butylpyridine]
solubility in hexane with co-solvent (or supercritical carbon dioxide with co-solvent) [1]: 4-t-butylpyridine

Cu(1-octyl-4-ethyl-2-methylimidazole)2(HCOO)2H2O
solubility in hexane (blue color of solution) [2]: dissolves in hexane to yield a blue solution
solubility in hexane (blue color of solution) ([2]; listed as Cu(1-octyl-4-ethyl-2-methylimidazole)2(HCOO)2H2O): soluble in hexane
